# Reference: patent US11655235B2, “Pyrrolidine and piperidine compounds” (YUHAN CORPORATION, priority 2019, dated 2023)
# Experiments:
# Assay type in all cases: biochemical
# [1] = molecular target: T1, Recombinant human FAP (Homo sapiens, UniProt Q12884); assay: FAP inhibition, fluorogenic substrate Z-Gly-Pro-AMC; conditions: recombinant human FAP, substrate Z-Gly-Pro-AMC
# T1 construct: purchased R&D systems
# T1 sequence (Q12884 1-760): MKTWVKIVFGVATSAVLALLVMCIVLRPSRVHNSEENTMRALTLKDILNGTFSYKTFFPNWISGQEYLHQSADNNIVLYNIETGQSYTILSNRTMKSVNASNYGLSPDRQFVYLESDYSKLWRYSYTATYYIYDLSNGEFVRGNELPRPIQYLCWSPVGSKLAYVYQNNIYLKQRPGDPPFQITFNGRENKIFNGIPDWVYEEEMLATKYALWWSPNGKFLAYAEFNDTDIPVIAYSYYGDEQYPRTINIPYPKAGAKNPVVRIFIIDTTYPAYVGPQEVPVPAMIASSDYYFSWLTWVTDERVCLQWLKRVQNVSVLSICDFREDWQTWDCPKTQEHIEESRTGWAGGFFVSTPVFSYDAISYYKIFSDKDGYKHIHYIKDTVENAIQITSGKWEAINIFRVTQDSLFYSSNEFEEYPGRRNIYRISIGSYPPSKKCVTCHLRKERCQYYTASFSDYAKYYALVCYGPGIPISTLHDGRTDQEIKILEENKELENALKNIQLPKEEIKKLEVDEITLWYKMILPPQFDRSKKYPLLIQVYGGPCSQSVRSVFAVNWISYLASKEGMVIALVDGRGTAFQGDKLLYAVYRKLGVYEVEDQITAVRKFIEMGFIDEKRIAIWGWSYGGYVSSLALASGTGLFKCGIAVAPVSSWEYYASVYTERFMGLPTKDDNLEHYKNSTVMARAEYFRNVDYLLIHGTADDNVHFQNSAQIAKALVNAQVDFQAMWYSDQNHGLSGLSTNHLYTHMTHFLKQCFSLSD
# Outline: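 Eight-point compound dilutions (≤0.1% DMSO) were incubated at 25° C with 10 ng recombinant human FAP in Tris pH 7.5/1 M NaCl/BSA buffer and Z-Gly-Pro-AMC. Inhibition was taken as % drop in fluorescence rate (380/460 nm) against uninhibited control; IC50 came from a four-parameter logistic fit.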
# [2] = molecular target: T2, recombinant human DPP7 (Homo sapiens, UniProt Q9UHL4); assay: DPP7 inhibition, fluorogenic substrate Lys-Pro-AMC; conditions: recombinant human DPP7
# T2 construct: purchased R&D Systems
# Outline: (§1)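 Inhibitors are titrated in an 8-point series into the enzyme's assay buffer (DMSO no more than 0.5%). Substrate cleavage at 25 °C is followed by fluorescence, excitation 380 nm and emission 460 nm. IC50 values come from a four-variable logistic model.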
# [3] = molecular target: T3, recombinant human DPP8 (Homo sapiens, UniProt Q6V1X1); assay: DPP8 inhibition, fluorogenic substrate Z-Ala-Pro-AMC; conditions: recombinant human DPP8
# T3 construct: purchased PBS Bioscience
# T3 sequence (Q6V1X1 whole entry): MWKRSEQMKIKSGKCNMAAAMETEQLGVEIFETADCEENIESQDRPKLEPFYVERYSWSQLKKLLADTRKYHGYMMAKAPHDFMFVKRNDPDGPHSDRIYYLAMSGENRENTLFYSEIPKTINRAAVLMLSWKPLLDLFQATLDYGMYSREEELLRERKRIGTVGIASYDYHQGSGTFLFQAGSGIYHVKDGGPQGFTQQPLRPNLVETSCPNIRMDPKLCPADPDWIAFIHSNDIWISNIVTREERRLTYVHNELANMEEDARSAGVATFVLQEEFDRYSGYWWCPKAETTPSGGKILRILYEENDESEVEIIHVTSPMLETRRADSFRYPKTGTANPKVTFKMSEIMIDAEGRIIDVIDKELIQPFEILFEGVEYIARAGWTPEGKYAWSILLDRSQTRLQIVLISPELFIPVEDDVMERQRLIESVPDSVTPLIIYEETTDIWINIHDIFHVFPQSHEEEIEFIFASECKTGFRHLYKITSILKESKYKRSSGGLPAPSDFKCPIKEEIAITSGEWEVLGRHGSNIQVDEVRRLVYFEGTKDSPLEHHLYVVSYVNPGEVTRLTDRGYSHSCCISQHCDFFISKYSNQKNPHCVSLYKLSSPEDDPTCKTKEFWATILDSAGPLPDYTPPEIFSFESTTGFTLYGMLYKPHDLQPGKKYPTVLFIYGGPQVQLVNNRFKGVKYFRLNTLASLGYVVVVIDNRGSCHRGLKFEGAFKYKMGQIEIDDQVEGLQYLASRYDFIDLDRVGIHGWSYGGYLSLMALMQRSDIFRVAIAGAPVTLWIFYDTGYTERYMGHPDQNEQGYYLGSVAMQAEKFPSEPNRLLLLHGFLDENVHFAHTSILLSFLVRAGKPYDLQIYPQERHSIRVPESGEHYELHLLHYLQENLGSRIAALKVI
# Outline: as §1
# [4] = molecular target: T4, recombinant human DPP9 (Homo sapiens, UniProt Q86TI2); assay: DPP9 inhibition, fluorogenic substrate H-Gly-Pro-AMC; conditions: recombinant human DPP9
# T4 construct: purchased R&D Systems
# T4 sequence (Q86TI2 whole entry): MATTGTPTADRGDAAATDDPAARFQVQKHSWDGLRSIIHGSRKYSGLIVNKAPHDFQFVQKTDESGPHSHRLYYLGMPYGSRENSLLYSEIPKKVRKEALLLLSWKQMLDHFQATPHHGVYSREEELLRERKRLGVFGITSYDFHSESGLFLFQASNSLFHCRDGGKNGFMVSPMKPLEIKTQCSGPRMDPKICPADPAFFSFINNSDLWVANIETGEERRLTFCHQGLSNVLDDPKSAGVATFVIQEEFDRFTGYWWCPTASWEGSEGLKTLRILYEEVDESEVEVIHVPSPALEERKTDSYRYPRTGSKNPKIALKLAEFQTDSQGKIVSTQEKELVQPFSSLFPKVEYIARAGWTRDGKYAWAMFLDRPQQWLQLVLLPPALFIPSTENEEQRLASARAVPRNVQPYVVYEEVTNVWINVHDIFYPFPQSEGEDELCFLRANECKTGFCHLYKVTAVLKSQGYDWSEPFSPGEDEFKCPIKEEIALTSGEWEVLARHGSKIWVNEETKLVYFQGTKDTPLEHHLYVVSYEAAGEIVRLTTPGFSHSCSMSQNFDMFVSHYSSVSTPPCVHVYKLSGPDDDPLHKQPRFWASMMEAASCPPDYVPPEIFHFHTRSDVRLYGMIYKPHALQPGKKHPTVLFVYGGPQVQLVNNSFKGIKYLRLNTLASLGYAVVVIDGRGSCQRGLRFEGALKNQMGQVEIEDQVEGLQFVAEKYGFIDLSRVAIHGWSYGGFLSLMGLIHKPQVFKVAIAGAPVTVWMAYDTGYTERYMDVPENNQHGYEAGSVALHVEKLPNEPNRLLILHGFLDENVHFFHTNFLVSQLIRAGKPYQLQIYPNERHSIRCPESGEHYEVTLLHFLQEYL
# Outline: as §1
# [5] = molecular target: T5, recombinant human PREP (Homo sapiens, UniProt P48147); assay: PREP inhibition, fluorogenic substrate Z-Gly-Pro-AMC; conditions: Inhibitory Activity (IC50, nM) PREP, recombinant human PREP
# T5 construct: purchased R&D System
# T5 sequence (P48147 1-710): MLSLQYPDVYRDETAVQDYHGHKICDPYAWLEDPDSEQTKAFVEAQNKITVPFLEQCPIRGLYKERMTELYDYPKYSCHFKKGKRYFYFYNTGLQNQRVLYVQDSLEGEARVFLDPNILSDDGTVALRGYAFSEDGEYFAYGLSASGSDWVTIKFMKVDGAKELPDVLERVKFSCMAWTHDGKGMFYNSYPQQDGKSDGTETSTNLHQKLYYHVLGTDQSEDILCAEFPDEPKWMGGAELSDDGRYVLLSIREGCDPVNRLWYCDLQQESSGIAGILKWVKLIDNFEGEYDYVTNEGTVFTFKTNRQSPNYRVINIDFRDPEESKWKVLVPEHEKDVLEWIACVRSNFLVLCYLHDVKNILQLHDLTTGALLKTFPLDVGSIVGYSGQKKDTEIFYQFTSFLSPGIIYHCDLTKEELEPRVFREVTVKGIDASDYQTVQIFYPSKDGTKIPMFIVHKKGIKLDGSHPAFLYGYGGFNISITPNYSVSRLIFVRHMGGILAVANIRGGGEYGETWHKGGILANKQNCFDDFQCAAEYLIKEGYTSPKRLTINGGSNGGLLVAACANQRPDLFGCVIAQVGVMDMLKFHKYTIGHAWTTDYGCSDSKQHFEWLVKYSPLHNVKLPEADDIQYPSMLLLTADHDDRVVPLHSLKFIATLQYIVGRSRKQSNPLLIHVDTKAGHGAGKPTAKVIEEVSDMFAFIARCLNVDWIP
# Outline: as §1
# [6] = molecular target: DPP4 (Homo sapiens, UniProt P27487); assay: DPP4 inhibition, fluorogenic substrate H-Gly-Pro-AMC; parameters: purchased R&D Systems; conditions: recombinant human DPP4
# DPP4, sequence (P27487 whole entry): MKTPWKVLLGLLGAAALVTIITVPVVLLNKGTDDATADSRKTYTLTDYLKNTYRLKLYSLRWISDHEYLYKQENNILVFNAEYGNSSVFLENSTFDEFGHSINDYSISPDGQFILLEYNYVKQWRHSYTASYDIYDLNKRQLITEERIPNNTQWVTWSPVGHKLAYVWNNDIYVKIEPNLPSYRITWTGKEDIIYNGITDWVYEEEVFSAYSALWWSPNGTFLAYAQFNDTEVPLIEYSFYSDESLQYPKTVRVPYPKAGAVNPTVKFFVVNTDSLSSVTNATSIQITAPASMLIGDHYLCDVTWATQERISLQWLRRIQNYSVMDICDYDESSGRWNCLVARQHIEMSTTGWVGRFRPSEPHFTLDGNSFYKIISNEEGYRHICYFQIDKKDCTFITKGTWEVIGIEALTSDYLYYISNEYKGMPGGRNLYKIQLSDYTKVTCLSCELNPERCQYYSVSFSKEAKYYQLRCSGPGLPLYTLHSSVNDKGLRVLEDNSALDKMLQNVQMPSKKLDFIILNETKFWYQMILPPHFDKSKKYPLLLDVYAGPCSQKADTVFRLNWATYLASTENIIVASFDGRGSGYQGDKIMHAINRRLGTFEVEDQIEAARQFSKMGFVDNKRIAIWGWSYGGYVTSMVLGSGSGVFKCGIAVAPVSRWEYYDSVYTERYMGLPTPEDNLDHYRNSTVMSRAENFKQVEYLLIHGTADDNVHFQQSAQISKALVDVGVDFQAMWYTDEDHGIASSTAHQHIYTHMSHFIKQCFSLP
structure (smiles),measurement,setting,value
"N#C[C@@H]1CCCN1C(=O)CN1CC[C@H](Nc2cc(F)cc3ncccc23)C1 [Example 236, (2S)-1-[2-[(3S)-3-[(7-fluoro-5-quinolyl)amino]pyrrolidin-1-yl]acetyl]pyrrolidine-2-carbonitrile]",IC50,[1],0.0015 µM
same,IC50,[2],3.47 µM
same,IC50,[3],> 100 µM
same,IC50,[4],18.8 µM
same,IC50,[5],8900 nM
same,IC50,[6],> 10 µM
"COc1cc(N[C@H]2CCN(CC(=O)N3CCC[C@H]3C#N)C2)c2cccnc2c1 [Example 237, (2S)-1-[2-[(3S)-3-[(7-methoxy-5-quinolyl)amino]pyrrolidin-1-yl]acetyl]pyrrolidine-2-carbonitrile]",IC50,[1],0.0015 µM
same,IC50,[2],0.746 µM
same,IC50,[3],22.6 µM
same,IC50,[4],34.6 µM
same,IC50,[5],6600 nM
same,IC50,[6],9.29 µM
"N#C[C@@H]1CCCN1C(=O)CN1CC[C@H](Nc2cc(C(F)(F)F)cc3ncccc23)C1 [Example 238, (2S)-1-[2-[(3S)-3-[[7-(trifluoromethyl)-5-quinolyl]amino]pyrrolidin-1-yl]acetyl]pyrrolidine-2-carbonitrile]",IC50,[1],0.0014 µM
same,IC50,[2],2.21 µM
same,IC50,[3],> 100 µM
same,IC50,[4],29.3 µM
same,IC50,[5],3930 nM
same,IC50,[6],> 10 µM
"Cc1ccc2ncccc2c1N[C@H]1CCN(CC(=O)N2CCC[C@H]2C#N)C1 [Example 239, (2S)-1-[2-[(3S)-3-[(6-methyl-5-quinolyl)amino]pyrrolidin-1-yl]acetyl]pyrrolidine-2-carbonitrile]",IC50,[1],0.006 µM
same,IC50,[2],7.28 µM
same,IC50,[3],74.3 µM
same,IC50,[4],43.9 µM
same,IC50,[5],9980 nM
same,IC50,[6],> 10 µM
"N#C[C@@H]1CCCN1C(=O)CN1CC[C@H](Nc2c(F)ccc3ncccc23)C1 [Example 241, (2S)-1-[2-[(3S)-3-[(6-fluoro-5-quinolyl)amino]pyrrolidin-1-yl]acetyl]pyrrolidine-2-carbonitrile]",IC50,[1],0.0045 µM
same,IC50,[2],17 µM
same,IC50,[3],77.3 µM
same,IC50,[4],48 µM
same,IC50,[5],13000 nM
same,IC50,[6],> 10 µM
"Cc1ccc(N[C@H]2CCN(CC(=O)N3CCC[C@H]3C#N)C2)c2cccnc12 [Example 242, (2S)-1-[2-[(3S)-3-[(8-methyl-5-quinolyl)amino]pyrrolidin-1-yl]acetyl]pyrrolidine-2-carbonitrile]",IC50,[1],0.0017 µM
same,IC50,[2],1.7 µM
same,IC50,[3],11 µM
same,IC50,[4],19.3 µM
same,IC50,[5],8440 nM
same,IC50,[6],> 10 µM
"N#C[C@@H]1CCCN1C(=O)CN1CC[C@H](Nc2ccc(OC(F)(F)F)c3ncccc23)C1 [Example 246, (2S)-1-[2-[(3S)-3-[[8-(trifluoromethoxy)-5-quinolyl]amino]pyrrolidin-1-yl]acetyl]pyrrolidine-2-carbonitrile]",IC50,[1],0.0009 µM
same,IC50,[2],2.56 µM
same,IC50,[3],> 30 µM
same,IC50,[4],21 µM
same,IC50,[5],11300 nM
same,IC50,[6],> 10 µM
"N#C[C@@H]1CCCN1C(=O)CN1CC[C@H](Nc2ccc(OCc3ccccc3)c3ncccc23)C1 [Example 248, (2S)-1-[2-[(3S)-3-[(8-benzyloxy-5-quinolyl)amino]pyrrolidin-1-yl]acetyl]pyrrolidine-2-carbonitrile]",IC50,[1],0.0031 µM
same,IC50,[2],0.81 µM
same,IC50,[3],5.34 µM
same,IC50,[4],3.68 µM
same,IC50,[5],6160 nM
same,IC50,[6],7.07 µM
"N#C[C@@H]1C[C@H](F)CN1C(=O)CN1CC[C@H](Nc2cnc3ccccc3c2)C1 [Example 249, (2S,4S)-4-fluoro-1-[2-[(3S)-3-(3-quinolylamino)pyrrolidin-1-yl]acetyl]pyrrolidine-2-carbonitrile]",IC50,[1],0.006 µM
same,IC50,[2],0.489 µM
same,IC50,[3],> 3 µM
same,IC50,[4],5.77 µM
same,IC50,[5],1050 nM
same,IC50,[6],1.45 µM
"N#C[C@@H]1C[C@H](F)CN1C(=O)CN1CC[C@H](Nc2ccc3ncccc3c2)C1 [Example 250, (2S,4S)-4-fluoro-1-[2-[(3S)-3-(6-quinolylamino)pyrrolidin-1-yl]acetyl]pyrrolidine-2-carbonitrile]",IC50,[1],0.0034 µM
same,IC50,[2],0.654 µM
same,IC50,[3],2.28 µM
same,IC50,[4],3.69 µM
same,IC50,[5],2160 nM
same,IC50,[6],0.964 µM
"N#Cc1ccc2c(N[C@H]3CCN(CC(=O)N4C[C@@H](F)C[C@H]4C#N)C3)cccc2n1 [Example 252, 5-[[(3S)-1-[2-oxo-2-[(2S,4S)-2-cyano-4-fluoro-pyrrolidin-1-yl]ethyl]pyrrolidin-3-yl]amino]quinoline-2-carbonitrile]",IC50,[1],0.0008 µM
same,IC50,[2],0.308 µM
same,IC50,[3],2.48 µM
same,IC50,[4],4.93 µM
same,IC50,[5],3320 nM
same,IC50,[6],1.63 µM
"N#Cc1cnc2cccc(N[C@H]3CCN(CC(=O)N4C[C@@H](F)C[C@H]4C#N)C3)c2c1 [Example 253, 5-[[(3S)-1-[2-oxo-2-[(2S,4S)-2-cyano-4-fluoro-pyrrolidin-1-yl]ethyl]pyrrolidin-3-yl]amino]quinoline-3-carbonitrile]",IC50,[1],0.0009 µM
same,IC50,[2],2.19 µM
same,IC50,[3],2.67 µM
same,IC50,[4],5.36 µM
same,IC50,[5],2220 nM
same,IC50,[6],2.31 µM
"COc1cnc2cccc(N[C@H]3CCN(CC(=O)N4C[C@@H](F)C[C@H]4C#N)C3)c2c1 [Example 254, (2S,4S)-4-fluoro-1-[2-[(3S)-3-[(3-methoxy-5-quinolyl)amino]pyrrolidin-1-yl]acetyl]pyrrolidine-2-carbonitrile]",IC50,[1],0.0021 µM
same,IC50,[2],1.4 µM
same,IC50,[3],12.2 µM
same,IC50,[4],13.1 µM
same,IC50,[5],275 nM
same,IC50,[6],4.71 µM
"N#C[C@@H]1C[C@H](F)CN1C(=O)CN1CC[C@H](Nc2cccc3ncc(Cl)cc23)C1 [Example 256, (2S,4S)-4-fluoro-1-[2-[(3S)-3-[(3-chloro-5-quinolyl)amino]pyrrolidin-1-yl]acetyl]pyrrolidine-2-carbonitrile]",IC50,[1],0.0008 µM
same,IC50,[2],1.79 µM
same,IC50,[3],3.35 µM
same,IC50,[4],6.96 µM
same,IC50,[5],603 nM
same,IC50,[6],1.88 µM
"COc1cc(N[C@H]2CCN(CC(=O)N3C[C@@H](F)C[C@H]3C#N)C2)c2cccnc2c1 [Example 257, (2S,4S)-4-fluoro-1-[2-[(3S)-3-[(7-methoxy-5-quinolyl)amino]pyrrolidin-1-yl]acetyl]pyrrolidine-2-carbonitrile]",IC50,[1],0.0009 µM
same,IC50,[2],0.289 µM
same,IC50,[3],4.54 µM
same,IC50,[4],6.56 µM
same,IC50,[5],1530 nM
same,IC50,[6],0.694 µM
"N#C[C@@H]1C[C@H](F)CN1C(=O)CN1CC[C@H](Nc2cc(C(F)(F)F)cc3ncccc23)C1 [Example 258, (2S,4S)-4-fluoro-1-[2-[(3S)-3-[[7-(trifluoromethyl)-5-quinolyl]amino]pyrrolidin-1-yl]acetyl]pyrrolidine-2-carbonitrile]",IC50,[1],0.001 µM
same,IC50,[2],1.39 µM
same,IC50,[3],> 100 µM
same,IC50,[4],7.97 µM
same,IC50,[5],1280 nM
same,IC50,[6],1.83 µM
